Laboratory results: PubChem BioAssay AID1259342 (Broad Institute, 2017)
Calls of active or inactive are those of the source.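 Rule for the calls: active = fitted half-maximal inhibitory concentration AC50 at most ten times the top concentration tested; inconclusive = flat fit with 30 to 70% inhibition, or unusable fit; inactive = AC50 above ten times the top concentration.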

The molecules below were run against E3 ubiquitin-protein ligase TRIM62 (Homo sapiens) (UniProt Q9BVG3) (assay: TRIM62 E3 ligase activity on CARD9 – biochemical, ubiquitin ELISA, AlphaLISA TUBE, CARD9-TRIM62 disruptor project, dose response (AID 1259342;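 for AC50: potency is for inhibitors that reduce CARD9 ubiquitylation signal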)). Settings: TRIM62-mediated CARD9 ubiquitylation, AlphaLISA TUBE detection.
Sequence of E3 ubiquitin-protein ligase TRIM62 (Homo sapiens) (Q9BVG3 whole entry, looked up): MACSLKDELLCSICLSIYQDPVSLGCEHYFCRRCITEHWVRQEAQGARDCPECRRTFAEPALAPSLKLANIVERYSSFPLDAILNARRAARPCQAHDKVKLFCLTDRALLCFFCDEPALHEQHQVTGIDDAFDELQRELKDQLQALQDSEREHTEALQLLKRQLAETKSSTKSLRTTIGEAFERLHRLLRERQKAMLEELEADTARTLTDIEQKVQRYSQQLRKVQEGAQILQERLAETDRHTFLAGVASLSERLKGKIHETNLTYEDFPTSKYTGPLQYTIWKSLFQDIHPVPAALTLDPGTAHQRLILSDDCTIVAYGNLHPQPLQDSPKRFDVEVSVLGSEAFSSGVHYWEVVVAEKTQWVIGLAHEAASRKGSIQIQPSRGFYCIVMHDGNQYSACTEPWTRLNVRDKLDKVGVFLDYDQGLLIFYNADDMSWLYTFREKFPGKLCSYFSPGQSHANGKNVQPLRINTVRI

Row | Compound | AC50
1 | O=C(NCCCN1CCOCC1)c1cc(-c2ccco2)nc2ccccc12 | 11.3 µM
2 | CCOc1cc2c(C#N)c(N3CCNCC3)nc(N)c2c(N)n1 | > 160 µM (inactive)
3 | O=C(Cc1ccc(S(=O)(=O)N2CCOCC2)s1)Nc1nc2c(s1)CCCC2 | 26 µM
4 | N#Cc1c(N)oc(-c2ccco2)c1-c1ccco1 | 29.6 µM
5 | Cc1ccc(C(=O)Nc2cnc(N3CCC(C(N)=O)(N4CCCCC4)CC3)c(C(=O)O)c2)cc1 | 9.21 µM
6 | O=S(=O)(Nc1nc2ccc(S(=O)(=O)N3CCCCC3)cc2s1)c1ccccc1 | 42.2 µM
7 | O=C(CC1Nc2ccccc2OC1=O)Nc1ccc(Cl)cc1 (stereo unspecified) | > 160 µM (inactive)
8 | O=C(COc1cccnc1[N+](=O)[O-])c1ccc(Cl)s1 | 26.2 µM
9 | Cc1cccc(Nc2nc(C(=O)Nc3cc(F)ccc3F)nc3ccccc23)c1 | 24.3 µM
10 | Cc1ccc(Cc2cnc(N)s2)o1 | > 160 µM (inactive)
11 | C[C@H](CO)N1C[C@H](C)[C@@H](CN(C)CC2CCCCC2)OCCCC[C@H](C)Oc2ccc(NS(C)(=O)=O)cc2C1=O | > 160 µM (inactive)
12 | O=c1oc(-c2ccccc2)nc2sc3c(c12)CCC3 | > 160 µM (inactive)
13 | CCCN1CCc2nc(SCc3nc(-c4ccc(OC)cc4OC)oc3C)[nH]c(=O)c2C1 | > 160 µM (inactive)
14 | NC(=O)C1(N2CCCCC2)CCN(c2ncc(NC(=O)c3ccccc3)cc2C(=O)O)CC1 | 6.61 µM
15 | NC(=O)C1(N2CCCCC2)CCN(c2ncc(NC(=O)c3ccc(Cl)cc3)cc2C(=O)O)CC1 | 18.2 µM
16 | CCc1cc2c(=O)n(Cc3ccco3)c(SC)nc2s1 | > 160 µM (inactive)
17 | Cc1noc(CN(C)C(=O)c2cc(-c3ccco3)nc3c(C)c(Cl)ccc23)n1 | 49.2 µM
18 | Cc1ccc(-c2nc(C)sc2CC(=O)NCc2ccco2)cc1 | 56.6 µM
19 | O=C(NCc1ccco1)c1c2c(nc3ccccc13)CCC2 | 17.3 µM
20 | CC(=O)Nc1ccc2nc3c(=O)n(C)c(=O)n(C)c3nc2c1 | 48.2 µM
21 | O=C(O)Cc1c[nH]c2cccc(O)c12 | 0.921 µM
22 | Cc1ccc(C)n1NC(=O)c1ccccc1O | 13.5 µM
23 | CC1(C)Cc2ccccc2-c2nc(-c3ccccc3)oc(=O)c21 | 6.32 µM
24 | Cc1nn2c(c1-c1ccccc1)NC(c1ccco1)=CC2c1ccco1 (stereo unspecified) | 13 µM
25 | NC(=O)C1(N2CCCCC2)CCN(c2ncc(NC(=O)c3cccc(Cl)c3)cc2C(=O)O)CC1 | 14.2 µM

Row | Compound | AC50
26 | COc1ccc(-n2c(C)c3c(OC)cccc(=O)c3c2C)cc1 | 27.6 µM
27 | O=C(COC(=O)c1ccc(S(=O)(=O)NCc2ccco2)cc1)Nc1ccc(Cl)cn1 | 26.9 µM
28 | O=C(O)COc1ccc(-n2cccc2)cc1 | 14.7 µM
29 | CC1Cc2ccccc2N1CC(=O)NC(=O)NC(C)(C)C (stereo unspecified) | > 160 µM (inactive)
30 | O=C(Nc1nc(-c2ccco2)c(-c2ccco2)s1)C1CCC1 | 6.56 µM
31 | CCC1c2ccc(C)n2CCN1C(=O)Nc1ccccc1C(=O)OC (stereo unspecified) | 72.5 µM
32 | Cc1cccc(NC(=O)Cc2coc3ccc4ccccc4c23)n1 | 70 µM
33 | CC1CCN(c2nc(-c3ccco3)c3c(c2C#N)CC(C)(C)OC3)CC1 | 17.6 µM
34 | COCCn1c(C)cc(-c2csc(N)n2)c1C | 68.3 µM
35 | Nc1ccccc1Sc1nccc(C(F)(F)F)n1 | > 160 µM (inactive)
36 | O=C(CN1CCN(c2ccccc2O)CC1)NC(=O)NC1CCCC1 | > 160 µM (inactive)
37 | Cc1oc(CSCc2cc(C(=O)O)c(C)o2)cc1C(=O)O | > 160 µM (inactive)
38 | O=C(Cc1cccs1)Nc1nnc(Cc2ccccc2)s1 | 41.2 µM
39 | COc1ccc(N2CC3=C(N2)c2ccccc2CC3)cc1 | 54 µM
40 | O=C(Nc1nc(-c2ccco2)c(-c2ccco2)s1)c1ccco1 | 4.63 µM
41 | O=C1c2ccccc2-c2nc3ccccc3nc21 | > 160 µM (inactive)
42 | O=c1oc(/C=C/c2ccc([N+](=O)[O-])s2)nc2ccccc12 | > 160 µM (inactive)
43 | CCc1nc(OCc2ccco2)c2sc3nc4c(cc3c2n1)COC(C)(C)C4 | > 160 µM (inactive)
44 | COc1cccc(NC(=O)CN(C)C(=O)c2cc3c(s2)CCC3)c1 | 8.47 µM
45 | Cc1sc2ncnc(SCc3ccco3)c2c1C | 56.6 µM
46 | O=C(O)CCc1ccc(-c2cccs2)n1NC(=O)c1ccco1 | 63.5 µM
47 | CC(C)(C)c1ccc(-c2nc(C#N)c(NCc3ccncc3)o2)cc1 | 22.3 µM
48 | Cc1nc(C)c(C(=O)Nc2ncc([N+](=O)[O-])s2)o1 | 3.96 µM
49 | O=C(O)c1cc(-c2ccc(-c3ccc(F)cc3)o2)nc2ccccc12 | 31.4 µM

Same assay, conditions: TRIM62-mediated CARD9 ubiquitylation, AlphaLISA TUBE detection; at 38 µM (top of the series)

Row | Compound | activity change, negative = inhibition
50 | CC(=O)c1ccc(NC(=O)c2noc3c2CCC3)cc1 | inactive
51 | Cc1ccc(-c2cc(C(=O)NCc3ccco3)c3ccccc3n2)o1 | inactive
52 | CCCCCn1c(NC(=O)c2ccco2)c(C(=O)OCC)c2nc3ccccc3nc21 | inactive

Same assay, conditions: TRIM62-mediated CARD9 ubiquitylation, AlphaLISA TUBE detection; at 80 µM (top of the series)

Row | Compound | activity change, negative = inhibition
53 | CCOC(=O)c1ccc(-c2ccc(C3CC(=O)Nc4cc5c(cc43)OCCO5)o2)cc1 (stereo unspecified) | inactive
54 | O=C(Nc1ccc(OCC(=O)N2CCOCC2)cc1)c1cncc(Br)c1 | inactive
55 | COc1ccc(N2Cc3cccc(C(=O)NC(C)CCc4ccco4)c3C2=O)cc1 (stereo unspecified) | inactive
56 | CC1(C)Cc2c(c(N3CCOCC3)nc3sc(C(=O)NCc4ccco4)c(N)c23)CO1 | inactive
57 | CN(C)c1ccc(CN2C[C@H]3CC[C@@H]2CN(C(=O)c2ccncc2)C3)cn1 | inactive
58 | Cc1cncc(-c2ccc(S(N)(=O)=O)cc2F)c1 | inactive
59 | O=C(Nc1ccc2oc(-c3ccncc3)nc2c1)c1ccc2c(c1)OCCO2 | inactive
60 | C[n+]1cccc2cccc(O)c21 | inactive
61 | O=C(NC(Sc1ncccn1)C(=O)c1ccccc1)c1ccccc1 (stereo unspecified) | inactive
62 | CCNc1ncc(C(=O)NCCc2nc3c(s2)CCCC3)cn1 | inactive
63 | CC(C)=CCC(C#N)(CC=C(C)C)C(=O)O | inactive
64 | Cc1cc(C)c2c(N)c(C(=O)Nc3cccc4ccccc34)sc2n1 | inactive
65 | N#Cc1c(-c2ccco2)cc(-c2cccnc2)nc1N | inactive
66 | O=C(Nc1nnc(-c2ccco2)s1)c1ccccc1 | inactive
67 | CN(Cc1ccco1)S(=O)(=O)c1nnc(NC(=O)c2ccccc2)s1 | inactive
68 | O=C(NCc1ccco1)C1CCCN(S(=O)(=O)c2cccc3nonc23)C1 (stereo unspecified) | inactive
69 | O=C(Nc1ccc2c(c1)nc1n2CCN(C2CCCCC2)C1)c1ccco1 | inactive
70 | Clc1ccc2nc(CN3CCCCCC3)cn2c1 | inactive
71 | O=C(NCc1ccco1)c1ccc(S(=O)(=O)N2CCOCC2)cc1 | inactive
72 | O=C(NCc1ccco1)[C@@H]1CSC2c3ccccc3C(=O)N21 (stereo partly specified) | inactive
73 | COc1ccc(-c2nc(SCC(=O)N3CCN(c4ccccc4OC)CC3)n[nH]2)cc1 | inactive
74 | Cc1ccc(C(=O)Nc2ccc(N3CCC(C(N)=O)(N4CCCCC4)CC3)c(C(=O)O)c2)cc1 | inactive
75 | O=[N+]([O-])c1ccc2cc[nH]c2c1 | inactive
76 | CCN1CCOC(=O)C1CC(=O)Nc1cccc(C)c1 (stereo unspecified) | inactive
77 | O=C(O)c1ccccc1SC1CC(=O)N(Cc2ccccc2)C1=O (stereo unspecified) | inactive

Row | Compound | activity change, negative = inhibition
78 | N#Cc1c2ccc(OCC(=O)NCc3ccco3)cc2n2ccccc12 | inactive
79 | Cc1cc(C(=O)Nc2nc3c(s2)CCc2ccccc2-3)no1 | inactive
80 | CC(CCc1ccco1)N(C)S(=O)(=O)c1ccc2[nH]c(=O)ccc2c1 (stereo unspecified) | inactive
81 | O=C(NC1(C(F)(F)F)Oc2ccc(Cl)cc2O1)N1CCC2(CC1)OCCO2 (stereo unspecified) | inactive
82 | COCC(=O)N1CCCC2(CCN(CCN3CCCC3)C2=O)C1 (stereo unspecified) | inactive
83 | CCOC(=O)C1CCN(C(=O)CN(Cc2ccccc2)S(C)(=O)=O)CC1 | inactive
84 | O=C1c2ccccc2S(=O)(=O)N1Cc1cccc(S(=O)(=O)N2CCOCC2)c1 | inactive
85 | CCOc1ccc(-n2c3nc4ccccc4nc3c3c(=O)n(Cc4ccco4)cnc32)cc1 | inactive
86 | CS(=O)(=O)N1CCN(c2ccc([N+](=O)[O-])c(SCc3ccco3)c2)CC1 | inactive
87 | O=C(Nc1ccc2oc(-c3ccncc3)nc2c1)c1ccc2c(c1)OCO2 | inactive
88 | Cc1c(/C=C/c2nc3ccccc3c(=O)n2-c2ccccn2)c2ccccc2n1C | inactive
89 | CCCN1CCCn2nc(CNC(=O)[C@H]3CC[C@@H](N)C3)cc2C1 | inactive
90 | COc1ccc(Nc2nc(-c3nnc(-c4ccc(F)cc4)o3)nc3ccccc23)cc1Cl | inactive
91 | O=C1CC(c2ccco2)Cc2nc(N3CCc4ccccc4C3)ncc21 (stereo unspecified) | inactive
92 | CS(=O)(=O)c1ccc2ccn(O)c2c1 | inactive
93 | Fc1ccc(CSc2nnc(-c3cccnc3)n2Cc2ccco2)cc1 | inactive
94 | CC(C(=O)N1CCCC1)N1CCN(c2ccccc2O)CC1 (stereo unspecified) | inactive
95 | NC(=O)c1ccc(CN2C(=O)C3(CCNCC3)Nc3ccccc32)cc1 | inactive
96 | O=C(Nc1ccon1)c1cc2cccnc2n(Cc2ccccc2)c1=O | inactive
97 | CN(C)C(CN=C1NS(=O)(=O)c2ccccc21)c1ccco1 (stereo unspecified) | inactive
98 | COCCC(=O)N1CCCC2(CCN(CCN3CCCC3)C2=O)C1 (stereo unspecified) | inactive
99 | CN1C(=O)C(c2ccccc2[N+](=O)[O-])C(=O)c2ccccc21 (stereo unspecified) | inactive
100 | COC[C@]1(O)CCN(C(=O)CCN(C)S(C)(=O)=O)CC1(C)C | inactive
101 | O=C(Nc1ccc2oc(-c3cccnc3)nc2c1)c1ccc2c(c1)OCCO2 | inactive
